Test system: 324938-238-R-J1-PDC complex spheroid viability
Experiment: Anticancer human tumor 324938-238-R-J1-PDC patient-derived bladder carcinoma cell line growth inhibition
Conditions: for IC50: curve of first compound; for viability, T/C: stronger effect = lower value
Summary of the method: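 Multicellular complex spheroids of tumor cells with human endothelial cells (HUVEC) and mesenchymal stem cells; the LSD1 inhibitor iadademstat was combined with standard-of-care or investigational agents. Top concentration at or near clinical Cmax, half-log dilutions; final DMSO ≤0.25%.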

[1] = second compound 0.1 µM, first compound 0.0316 µM
[2] = second compound 0.1 µM, first compound 0.1 µM
[3] = second compound 0.1 µM, first compound 0.316 µM
[4] = second compound 0.1 µM, first compound 1 µM
[5] = second compound 0.316 µM, first compound 0.0316 µM
[6] = second compound 0.316 µM, first compound 0.1 µM
[7] = second compound 0.316 µM, first compound 0.316 µM
[8] = second compound 0.316 µM, first compound 1 µM
[9] = second compound 1 µM, first compound 0.0316 µM
[10] = second compound 1 µM, first compound 0.1 µM
[11] = second compound 1 µM, first compound 0.316 µM
[12] = second compound 1 µM, first compound 1 µM
[13] = second compound 3.16 µM, first compound 0.0316 µM
[14] = second compound 3.16 µM, first compound 0.1 µM
[15] = second compound 3.16 µM, first compound 0.316 µM
[16] = second compound 3.16 µM, first compound 1 µM
[17] = second compound 10 µM, first compound 0.0316 µM
[18] = second compound 10 µM, first compound 0.1 µM
[19] = second compound 10 µM, first compound 0.316 µM
[20] = second compound 10 µM, first compound 1 µM
[21] = second compound 0.1 µM, first compound 0.00316 µM
[22] = second compound 0.1 µM, first compound 0.01 µM
[23] = second compound 0.316 µM, first compound 0.00316 µM
[24] = second compound 0.316 µM, first compound 0.01 µM
[25] = second compound 1 µM, first compound 0.00316 µM
[26] = second compound 1 µM, first compound 0.01 µM
[27] = second compound 3.16 µM, first compound 0.00316 µM
[28] = second compound 3.16 µM, first compound 0.01 µM
[29] = second compound 10 µM, first compound 0.00316 µM
[30] = second compound 10 µM, first compound 0.01 µM
[31] = second compound 0.1 µM, first compound 0.00949 µM
[32] = second compound 0.1 µM, first compound 0.03 µM
[33] = second compound 0.1 µM, first compound 0.0949 µM
[34] = second compound 0.1 µM, first compound 0.3 µM
[35] = second compound 0.1 µM, first compound 0.949 µM
[36] = second compound 0.1 µM, first compound 3 µM
[37] = second compound 0.316 µM, first compound 0.00949 µM
[38] = second compound 0.316 µM, first compound 0.03 µM
[39] = second compound 0.316 µM, first compound 0.0949 µM
[40] = second compound 0.316 µM, first compound 0.3 µM
[41] = second compound 0.316 µM, first compound 0.949 µM
[42] = second compound 0.316 µM, first compound 3 µM
[43] = second compound 1 µM, first compound 0.00949 µM
[44] = second compound 1 µM, first compound 0.03 µM
[45] = second compound 1 µM, first compound 0.0949 µM
[46] = second compound 1 µM, first compound 0.3 µM
[47] = second compound 1 µM, first compound 0.949 µM
[48] = second compound 1 µM, first compound 3 µM
[49] = second compound 3.16 µM, first compound 0.00949 µM
[50] = second compound 3.16 µM, first compound 0.03 µM
[51] = second compound 3.16 µM, first compound 0.0949 µM
[52] = second compound 3.16 µM, first compound 0.3 µM
[53] = second compound 3.16 µM, first compound 0.949 µM
[54] = second compound 3.16 µM, first compound 3 µM
[55] = second compound 10 µM, first compound 0.00949 µM
[56] = second compound 10 µM, first compound 0.03 µM
[57] = second compound 10 µM, first compound 0.0949 µM
[58] = second compound 10 µM, first compound 0.3 µM
[59] = second compound 10 µM, first compound 0.949 µM
[60] = second compound 10 µM, first compound 3 µM
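Further: spheroids also contain HUVEC and human MSCs and agents combined with iadademstat; spheroids exposed to agents for 7 days before readout.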

## CC1(C)CCC(CN2CCN(c3ccc(C(=O)NS(=O)(=O)c4ccc(NCC5CCOCC5)c([N+](=O)[O-])c4)c(Oc4cnc5[nH]ccc5c4)c3)CC2)=C(c2ccc(Cl)cc2)C1 + NC1CC1c1ccc(-c2cccc(O)c2)cc1
Second compound 0.1 µM
  IC50: 3960 nM
Second compound 0.316 µM
  IC50: 4480 nM
Second compound 1 µM
  IC50: 3960 nM
Second compound 3.16 µM
  IC50: 4190 nM
Second compound 10 µM
  IC50: 2230 nM
[1]
  viability, T/C: 94.5%
[2]
  viability, T/C: 91.3%
[3]
  viability, T/C: 91.7%
[4]
  viability, T/C: 71%
Second compound 0.1 µM, first compound 3.16 µM
  viability, T/C: 61.5%
Second compound 0.1 µM, first compound 10 µM
  viability, T/C: 17.3%
[5]
  viability, T/C: 72%
[6]
  viability, T/C: 74.9%
[7]
  viability, T/C: 73.2%
[8]
  viability, T/C: 66.5%
Second compound 0.316 µM, first compound 3.16 µM
  viability, T/C: 64.2%
Second compound 0.316 µM, first compound 10 µM
  viability, T/C: 19.8%
[9]
  viability, T/C: 78.4%
[10]
  viability, T/C: 74.6%
[11]
  viability, T/C: 66.4%
[12]
  viability, T/C: 69.8%
Second compound 1 µM, first compound 3.16 µM
  viability, T/C: 58.5%
Second compound 1 µM, first compound 10 µM
  viability, T/C: 19.8%
[13]
  viability, T/C: 70.9%
[14]
  viability, T/C: 68.3%
[15]
  viability, T/C: 68.1%
[16]
  viability, T/C: 74.3%
Second compound 3.16 µM, first compound 3.16 µM
  viability, T/C: 59.6%
Second compound 3.16 µM, first compound 10 µM
  viability, T/C: 20.3%
[17]
  viability, T/C: 70.5%
[18]
  viability, T/C: 67.6%
[19]
  viability, T/C: 66.3%
[20]
  viability, T/C: 56.8%
Second compound 10 µM, first compound 3.16 µM
  viability, T/C: 47.9%
Second compound 10 µM, first compound 10 µM
  viability, T/C: 17.8%

## COc1cc(Nc2ncc3c(n2)-c2ccc(Cl)cc2C(c2c(F)cccc2OC)=NC3)ccc1C(=O)O + NC1CC1c1ccc(-c2cccc(O)c2)cc1
Second compound 0.1 µM
  IC50: 10.7 nM
Second compound 0.316 µM
  IC50: 9.45 nM
Second compound 1 µM
  IC50: 11.9 nM
Second compound 3.16 µM
  IC50: 13.7 nM
Second compound 10 µM
  IC50: 10.8 nM
[21]
  viability, T/C: 76.1%
[22]
  viability, T/C: 51%
[1]
  viability, T/C: 28.1%
[2]
  viability, T/C: 13.9%
[3]
  viability, T/C: 18.2%
[4]
  viability, T/C: 13.9%
[23]
  viability, T/C: 69.5%
[24]
  viability, T/C: 48.3%
[5]
  viability, T/C: 30%
[6]
  viability, T/C: 16%
[7]
  viability, T/C: 15.8%
[8]
  viability, T/C: 14.8%
[25]
  viability, T/C: 63%
[26]
  viability, T/C: 54.3%
[9]
  viability, T/C: 26.2%
[10]
  viability, T/C: 16.5%
[11]
  viability, T/C: 17.6%
[12]
  viability, T/C: 15.1%
[27]
  viability, T/C: 62.6%
[28]
  viability, T/C: 57.6%
[13]
  viability, T/C: 30%
[14]
  viability, T/C: 18.1%
[15]
  viability, T/C: 18.8%
[16]
  viability, T/C: 16.5%
[29]
  viability, T/C: 57.4%
[30]
  viability, T/C: 51.2%
[17]
  viability, T/C: 29.5%
[18]
  viability, T/C: 19.4%
[19]
  viability, T/C: 19.7%
[20]
  viability, T/C: 25.8%

## Cn1ncnc1C1c2n[nH]c(=O)c3cc(F)cc(c23)NC1c1ccc(F)cc1 (stereo not given) + NC1CC1c1ccc(-c2cccc(O)c2)cc1
Second compound 0.1 µM
  IC50: 37.8 nM
Second compound 0.316 µM
  IC50: 52.3 nM
Second compound 1 µM
  IC50: 46.1 nM
Second compound 3.16 µM
  IC50: 59.6 nM
Second compound 10 µM
  IC50: 59.8 nM
Second compound 0.1 µM, first compound 0.000316 µM
  viability, T/C: 82.2%
Second compound 0.1 µM, first compound 0.001 µM
  viability, T/C: 91%
[21]
  viability, T/C: 78.1%
[22]
  viability, T/C: 76.7%
[1]
  viability, T/C: 50.8%
[2]
  viability, T/C: 43.1%
Second compound 0.316 µM, first compound 0.000316 µM
  viability, T/C: 88.3%
Second compound 0.316 µM, first compound 0.001 µM
  viability, T/C: 65.7%
[23]
  viability, T/C: 69.3%
[24]
  viability, T/C: 61.9%
[5]
  viability, T/C: 50%
[6]
  viability, T/C: 47%
Second compound 1 µM, first compound 0.000316 µM
  viability, T/C: 70%
Second compound 1 µM, first compound 0.001 µM
  viability, T/C: 71.1%
[25]
  viability, T/C: 66.4%
[26]
  viability, T/C: 62.3%
[9]
  viability, T/C: 53.8%
[10]
  viability, T/C: 41.8%
Second compound 3.16 µM, first compound 0.000316 µM
  viability, T/C: 76.1%
Second compound 3.16 µM, first compound 0.001 µM
  viability, T/C: 73.1%
[27]
  viability, T/C: 63.9%
[28]
  viability, T/C: 63.1%
[13]
  viability, T/C: 48.6%
[14]
  viability, T/C: 49.2%
Second compound 10 µM, first compound 0.000316 µM
  viability, T/C: 64.1%
Second compound 10 µM, first compound 0.001 µM
  viability, T/C: 68%
[29]
  viability, T/C: 64%
[30]
  viability, T/C: 60.4%
[17]
  viability, T/C: 47%
[18]
  viability, T/C: 50%

## NS(=O)(=O)OCC1CC(n2ccc3c(NC4CCc5ccccc54)ncnc32)CC1O (stereo not given) + NC1CC1c1ccc(-c2cccc(O)c2)cc1
Second compound 0.1 µM
  IC50: 327 nM
Second compound 0.316 µM
  IC50: 230 nM
Second compound 1 µM
  IC50: 299 nM
Second compound 3.16 µM
  IC50: 300 nM
Second compound 10 µM
  IC50: 334 nM
[31]
  viability, T/C: 97.7%
[32]
  viability, T/C: 101%
[33]
  viability, T/C: 95.1%
[34]
  viability, T/C: 53.2%
[35]
  viability, T/C: 12.4%
[36]
  viability, T/C: 12%
[37]
  viability, T/C: 84.6%
[38]
  viability, T/C: 84.8%
[39]
  viability, T/C: 76%
[40]
  viability, T/C: 42.7%
[41]
  viability, T/C: 12.5%
[42]
  viability, T/C: 11.9%
[43]
  viability, T/C: 95.6%
[44]
  viability, T/C: 77.8%
[45]
  viability, T/C: 84.8%
[46]
  viability, T/C: 49.9%
[47]
  viability, T/C: 11.3%
[48]
  viability, T/C: 9.03%
[49]
  viability, T/C: 88.9%
[50]
  viability, T/C: 93.6%
[51]
  viability, T/C: 86.4%
[52]
  viability, T/C: 50.3%
[53]
  viability, T/C: 12.2%
[54]
  viability, T/C: 9.8%
[55]
  viability, T/C: 74.8%
[56]
  viability, T/C: 86.4%
[57]
  viability, T/C: 80.1%
[58]
  viability, T/C: 52.6%
[59]
  viability, T/C: 19.7%
[60]
  viability, T/C: 12.4%

## O=C(C=Cc1cccc(S(=O)(=O)Nc2ccccc2)c1)NO + NC1CC1c1ccc(-c2cccc(O)c2)cc1
Second compound 0.1 µM
  IC50: 160 nM
Second compound 0.316 µM
  IC50: 111 nM
Second compound 1 µM
  IC50: 87.4 nM
Second compound 3.16 µM
  IC50: 106 nM
Second compound 10 µM
  IC50: 29.5 nM
[31]
  viability, T/C: 84.3%
[32]
  viability, T/C: 75.3%
[33]
  viability, T/C: 59.1%
[34]
  viability, T/C: 36.2%
[35]
  viability, T/C: 24.5%
[36]
  viability, T/C: 3.13%
[37]
  viability, T/C: 69%
[38]
  viability, T/C: 64.2%
[39]
  viability, T/C: 52.6%
[40]
  viability, T/C: 34.6%
[41]
  viability, T/C: 21.9%
[42]
  viability, T/C: 2.23%
[43]
  viability, T/C: 62.6%
[44]
  viability, T/C: 55.4%
[45]
  viability, T/C: 50.5%
[46]
  viability, T/C: 37.2%
[47]
  viability, T/C: 20.1%
[48]
  viability, T/C: 1.65%
[49]
  viability, T/C: 64.2%
[50]
  viability, T/C: 65.9%
[51]
  viability, T/C: 50%
[52]
  viability, T/C: 34.4%
[53]
  viability, T/C: 23.6%
[54]
  viability, T/C: 1.52%
[55]
  viability, T/C: 57.7%
[56]
  viability, T/C: 47.1%
[57]
  viability, T/C: 40.1%
[58]
  viability, T/C: 34.9%
[59]
  viability, T/C: 24.6%
[60]
  viability, T/C: 2.48%

— PubChem BioAssay AID1918935 (Molecular Pharmacology Branch, DTP, NCI, 2023)
